The structures appear in SMILES notation. Residues, ends and D or L forms follow the SMILES beside them.

Results on one molecule are retold here after patent US5739273A, “Transmembrane polypeptide and methods of use” (Yale University, priority 1994, dated 1998).

The series in a line: circular dichroism titration in the presence of small unilamellar phospholipid vesicles. Type of series: physicochemical. To be noted: circular dichroism at 222 nanometers vs pH, DMPC small unilamellar vesicles. An excerpt:
FIG. 5A is a graph showing the circular dichroism analysis of the synthetic polypeptide of FIG. 1 in the presence of dimyristoyl phosphatidylcholine (DMPC) vesicles at various pH values. The black squares indicate the initial titration (down). The open circles indicate the reverse titration (up). The open triangles indicate the second titration (down).
The well-known spectroscopic technique of polarized infrared linear dichroism is used to determine the orientation of the alpha-helical domain of the polypeptide. The orientation of the polypeptide in protein/phospholipid multilayers is inferred from the dichroism of two amide vibrations.
FIG. 5A is a graph showing circular dichroism titration of the synthetic polypeptide having the amino acid sequence set forth in FIG. 1 and sequence listing identification number 1, in the presence of a solution containing small unilamellar phospholipid vesicles made from synthetic dimyristoyl phosphatidylcholine. The y axis is millidegrees at 222 nanometers, and the x axis is pH. […] FIG. 5B is a corresponding control graph showing circular dichroism titration of the polypeptide in the […] of lipid molecules.
Background: Circular dichroism is widely used to follow secondary structure.

For the molecule `CC[C@H](C)[C@H](NC(=O)[C@@H]1CCCN1C(=O)[C@H](CC(N)=O)NC(=O)[C@H](CCC(N)=O)NC(=O)[C@H](CCC(=O)O)NC(=O)CNC(=O)CN)C(=O)N[C@@H](Cc1ccc(O)cc1)C(=O)N[C@@H](Cc1c[nH]c2ccccc12)C(=O)N[C@@H](C)C(=O)N[C@@H](CCCNC(=N)N)C(=O)N[C@@H](Cc1ccc(O)cc1)C(=O)N[C@@H](C)C(=O)N[C@@H](CC(=O)O)C(=O)N[C@@H](Cc1c[nH]c2ccccc12)C(=O)N[C@@H](CC(C)C)C(=O)N[C@@H](Cc1ccccc1)C(=O)N[C@H](C(=O)N[C@H](C(=O)N1CCC[C@H]1C(=O)N[C@@H](CC(C)C)C(=O)N[C@@H](CC(C)C)C(=O)N[C@@H](CC(C)C)C(=O)N[C@@H](CC(C)C)C(=O)N[C@@H](CC(=O)O)C(=O)N[C@@H](CC(C)C)C(=O)N[C@@H](C)C(=O)N[C@@H](CC(C)C)C(=O)N[C@@H](CC(C)C)C(=O)N[C@H](C(=O)N[C@@H](CC(=O)O)C(=O)N[C@@H](C)C(=O)N[C@@H](CC(=O)O)C(=O)N[C@@H](CCC(=O)O)C(=O)NCC(=O)N[C@H](C(=O)O)[C@@H](C)O)C(C)C)[C@@H](C)O)[C@@H](C)O` [synthetic polypeptide] (H-GGEQNPIYWARYADWLFTTPLLLLDLALLVDADEGT-OH), the “pKa of formation of a polypeptide alpha-helix” value is given as 6.0.
